Structures can show the parent of a compound that is named as a salt.
Tests used:
serotonin transporter = target: T1, serotonin transporter (Rattus norvegicus, UniProt P31652); experiment: 5-HT transporter affinity: displacement of 3H-paroxetine from male rat cortical membranes; assay type: binding; conditions: displacement of 3H-paroxetine; male rat cortical membranes; read-out: 5-HT Transporter Affinity Ki
T1 construct: displace ^3H-paroxetine from male rat cortical membranes; from tissue; host or cells: male rat cortical membranes
T1 sequence (P31652 whole entry): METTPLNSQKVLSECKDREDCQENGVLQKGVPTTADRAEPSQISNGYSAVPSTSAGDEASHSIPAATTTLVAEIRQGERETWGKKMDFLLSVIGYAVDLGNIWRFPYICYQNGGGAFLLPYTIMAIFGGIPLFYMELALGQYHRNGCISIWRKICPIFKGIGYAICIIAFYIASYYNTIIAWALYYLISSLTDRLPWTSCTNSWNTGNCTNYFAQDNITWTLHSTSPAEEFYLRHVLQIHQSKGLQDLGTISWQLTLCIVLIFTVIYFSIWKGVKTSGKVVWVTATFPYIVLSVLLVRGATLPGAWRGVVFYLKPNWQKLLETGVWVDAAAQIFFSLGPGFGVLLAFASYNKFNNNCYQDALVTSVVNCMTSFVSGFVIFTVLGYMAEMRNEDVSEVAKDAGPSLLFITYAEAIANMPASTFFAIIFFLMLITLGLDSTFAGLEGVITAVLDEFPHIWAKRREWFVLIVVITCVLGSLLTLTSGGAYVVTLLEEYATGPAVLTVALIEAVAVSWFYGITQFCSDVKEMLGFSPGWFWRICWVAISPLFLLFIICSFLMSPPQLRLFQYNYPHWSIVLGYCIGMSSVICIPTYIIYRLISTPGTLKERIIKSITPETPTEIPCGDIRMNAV

5-HT1A receptor [1] = target: T2, 5-HT1A receptor (Homo sapiens, UniProt P08908); experiment: cAMP accumulation assay, 5-HT1A function; assay type: cell-based; conditions: for IC50: cells marked IC50 (antagonist), read-out: 5-HT1A Function cAMP IC50; for Emax: in brackets after EC50 or IC50, read-out: 5-HT1A Function cAMP (Emax)
T2 sequence (P08908 1-422): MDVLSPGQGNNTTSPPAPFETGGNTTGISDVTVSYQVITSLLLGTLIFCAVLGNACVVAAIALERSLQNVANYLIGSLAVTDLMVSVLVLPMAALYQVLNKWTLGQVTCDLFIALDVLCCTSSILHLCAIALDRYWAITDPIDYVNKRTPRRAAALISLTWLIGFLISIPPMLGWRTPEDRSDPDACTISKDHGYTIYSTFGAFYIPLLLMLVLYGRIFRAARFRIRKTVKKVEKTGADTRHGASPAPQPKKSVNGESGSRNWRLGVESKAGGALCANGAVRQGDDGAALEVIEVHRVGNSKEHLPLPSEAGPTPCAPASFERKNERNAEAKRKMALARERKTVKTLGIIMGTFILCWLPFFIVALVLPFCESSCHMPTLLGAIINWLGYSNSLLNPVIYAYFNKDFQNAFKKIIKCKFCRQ

[2] = target: T3, cloned human 5-HT1A receptors (Homo sapiens, UniProt P08908); experiment: 35S-GTPγS binding assay, 5-HT1A function; assay type: biochemical; conditions: for IC50: antagonist potency, reversal of 8-OH-DPAT, read-out: 5-HT1A Function GTPγS IC50; for Emax: maximum inhibitory effect, in brackets after IC50, read-out: 5-HT1A Function GTPγS (Imax)
T3 construct: expressed in transfected cells
T3 sequence (P08908 1-422): T2 sequence (P08908 1-422)

5-HT1A receptor [3] = target: T2, 5-HT1A receptor; experiment: 5-HT1A receptor affinity: displacement of [3H] 8-OH-DPAT; assay type: binding; set-up: expressed in transfected cells; conditions: for Ki: displacement of [3H] 8-OH-DPAT, CHO cells stably transfected with human 5-HT1A receptors, read-out: 5-HT1A Receptor Affinity Ki; for inhibition at 1 µM: read-out: 5-HT1A Receptor Affinity, % @ 1 μM

SMILES | melting point | other results
COc1cccc2c(CCCCNC3COc4c(F)ccc(C(N)=O)c4C3)coc12 (stereo not drawn) [Compound 167, 8-fluoro-3-{[4-(7-methoxy-1-benzofuran-3-yl)butyl]amino}chromane-5-carboxamide] | 138 to 141 °C | Ki (serotonin transporter): 44.9 nM; IC50 (5-HT1A receptor [1]): 136 nM; Emax (5-HT1A receptor [1]): 0%; IC50 [2]: 1820 nM; Emax [2]: 100%; Ki (5-HT1A receptor [3]): 31.2 nM
COc1cccc2c(CCCNC3COc4c(F)ccc(C(N)=O)c4C3)coc12 (stereo not drawn) [Compound 161, 8-fluoro-3-{[3-(7-methoxy-1-benzofuran-3-yl)propyl]amino}chromane-5-carboxamide] | 163 to 166 °C | Ki (serotonin transporter): 234 nM; IC50 (5-HT1A receptor [1]): 607 nM; Emax (5-HT1A receptor [1]): 0%; IC50 [2]: 3000 nM; Emax [2]: 100%; Ki (5-HT1A receptor [3]): 43.5 nM
CCCCN(CCCc1c[nH]c2ccc(F)cc12)C1COc2c(F)ccc(C(N)=O)c2C1 (stereo not drawn) (as salt: hydrochloride) [Compound 72, 3-{butyl[3-(5-fluoro-1H-indol-3-yl)propyl]amino}-8-fluorochromane-5-carboxamide] | 126 °C (dec.) | –
COc1cccc2c1CC(N(CCCc1c[nH]c3ccc(C#N)cc13)CC1CC1)CO2 (stereo not drawn) (as salt: hydrochloride) [Compound 45, 3-{3-[(cyclopropylmethyl)(5-methoxy-3,4-dihydro-2H-chromen-3-yl)amino]propyl}-1H-indole-5-carbonitrile] | 123 to 127 °C (dec.) | –
NC(=O)c1ccc(F)c2c1C[C@H](N(CCCCc1c[nH]c3ccc(F)cc13)C1CCC1)CO2 (as salt: hydrochloride) [Compound 83b, (3S)-3-{cyclobutyl[4-(5-fluoro-1H-indol-3-yl)butyl]amino}-8-fluorochromane-5-carboxamide] | 128 °C (dec.) | –
CCCN(CCCc1c[nH]c2c(Cl)cccc12)C1COc2c(F)ccc(C(N)=O)c2C1 (stereo not drawn) (as salt: hydrochloride) [Compound 113, 3-[[3-(7-chloro-1H-indol-3-yl)propyl](propyl)amino]-8-fluorochromane-5-carboxamide] | 145 to 154 °C (dec.) | –
COc1cccc2c(CCCCN(CC3CC3)C3COc4c(F)ccc(C(N)=O)c4C3)coc12 (stereo not drawn) (as salt: hydrochloride) [Compound 170, 3-{(cyclopropylmethyl)[4-(7-methoxy-1-benzofuran-3-yl)butyl]amino}-8-fluorochromane-5-carboxamide] | 114 to 120 °C | –
O=C(NCC1CC1)c1ccc(F)c2c1CC(N(CCCc1c[nH]c3ccc(F)cc13)C1CCC1)CO2 (stereo not drawn) (as salt: hydrochloride) [Compound 68, 3-{cyclobutyl[3-(5-fluoro-1H-indol-3-yl)propyl]amino}-N-(cyclopropylmethyl)-8-fluorochromane-5-carboxamide] | 114 °C (dec.) | –
O=C(O)c1cccc2c1CC(N(CCCc1c[nH]c3c(F)cc(F)cc13)C1CCC1)CO2 (stereo not drawn) [Compound 137, 3-{cyclobutyl[3-(5,7-difluoro-1H-indol-3-yl)propyl]amino}chromane-5-carboxylic acid] | 130 to 131 °C | Ki (serotonin transporter): 421 nM; inhibition at 1 µM (5-HT1A receptor [3]): 0%
NC(=O)c1ccc(F)c2c1CC(NCCCc1c[nH]c3ccc(F)cc13)CO2 (single isomer, unassigned; (+)) (as salt: hydrochloride) [Compound 1a, (+)-8-fluoro-3-{[3-(5-fluoro-1H-indol-3-yl)propyl]amino}chromane-5-carboxamide] | 89 °C (dec.) | –
CCN(CCCCc1coc2c(OC)cccc12)C1COc2c(F)ccc(C(N)=O)c2C1 (stereo not drawn) (as salt: hydrochloride) [Compound 168, 3-{ethyl[4-(7-methoxy-1-benzofuran-3-yl)butyl]amino}-8-fluorochromane-5-carboxamide] | 112 to 118 °C | –
COc1cccc2c1CC(N[C@H]1CC[C@@H](c3c[nH]c4ccc(F)cc43)CC1)CO2 (relative stereo) (as salt: hydrochloride) [Compound 181a, cis-N-[4-(5-fluoro-1H-indol-3-yl)cyclohexyl]-5-methoxychroman-3-amine] | 156.5 °C (dec.) | –
NC(=O)c1ccc(F)c2c1C[C@@H](N(CCCCc1c[nH]c3ccc(F)cc13)C1CCC1)CO2 (as salt: hydrochloride) [Compound 83a, (3R)-3-{cyclobutyl[4-(5-fluoro-1H-indol-3-yl)butyl]amino}-8-fluorochromane-5-carboxamide] | 128 °C (dec.) | –
CCN(CCCc1coc2c(OC)cccc12)C1COc2c(F)ccc(C(N)=O)c2C1 (stereo not drawn) (as salt: hydrochloride) [Compound 162, 3-{ethyl[3-(7-methoxy-1-benzofuran-3-yl)propyl]amino}-8-fluorochromane-5-carboxamide] | 125 to 128 °C | –
CCN(CCCc1c[nH]c2ccc(OC)cc12)C1COc2c(F)ccc(C(N)=O)c2C1 (stereo not drawn) (as salt: hydrochloride) [Compound 105, 3-{ethyl[3-(5-methoxy-1H-indol-3-yl)propyl]amino}-8-fluorochromane-5-carboxamide] | 154 to 162 °C (dec.) | –
COc1cccc2c(CCNC3COc4c(F)ccc(C(N)=O)c4C3)coc12 (stereo not drawn) [Compound 156, 8-fluoro-3-{[2-(7-methoxy-1-benzofuran-3-yl)ethyl]amino}chromane-5-carboxamide] | 172 to 174 °C | Ki (serotonin transporter): 381 nM; inhibition at 1 µM (5-HT1A receptor [3]): 28%
CCN(CCc1c[nH]c2ccc(F)cc12)C1COc2c(F)ccc(C(=O)NC)c2C1 (stereo not drawn) (as salt: hydrochloride) [Compound 85, 3-{ethyl[2-(5-fluoro-1H-indol-3-yl)ethyl]amino}-8-fluoro-N-methylchromane-5-carboxamide] | 125 °C (dec.) | –
NC(=O)c1ccc(F)c2c1OCC(N(CCCc1c[nH]c3c(F)cc(F)cc13)C1CCC1)C2 (stereo not drawn) (as salt: hydrochloride) [Compound 131, 3-{cyclobutyl[3-(5,7-difluoro-1H-indol-3-yl)propyl]amino}-5-fluorochromane-8-carboxamide] | 136 °C (dec.) | –
COc1cccc2c1CC(N(CCCc1c[nH]c3ccc(F)cc13)C1CCCC1)CO2 (stereo not drawn) (as salt: hydrochloride) [Compound 39, N-cyclopentyl-N-[3-(5-fluoro-1H-indol-3-yl)propyl]-N-(5-methoxy-3,4-dihydro-2H-chromen-3-yl)amine] | 112 °C (dec.) | –
NC(=O)c1ccc(F)c2c1OCC(N(CCCCc1c[nH]c3ccc(F)cc13)CC1CC1)C2 (stereo not drawn) (as salt: hydrochloride) [Compound 125, 3-{(cyclopropylmethyl)[4-(5-fluoro-1H-indol-3-yl)butyl]amino}-5-fluorochromane-8-carboxamide] | 116 °C (dec.) | –
CCCN(CCCc1csc2ccc(F)cc12)C1COc2cccc(OC)c2C1 (stereo not drawn) (as salt: hydrochloride) [Compound 19, N-[3-(5-fluoro-1-benzothien-3-yl)propyl]-5-methoxy-N-propylchroman-3-amine] | 78 °C (dec.) | –
COc1cccc2c1CC(N(CCCc1c[nH]c3ccc(C#N)cc13)C1CCC1)CO2 (stereo not drawn) (as salt: hydrochloride) [Compound 46, 3-{3-[cyclobutyl(5-methoxy-3,4-dihydro-2H-chromen-3-yl)amino]propyl}-1H-indole-5-carbonitrile] | 133 to 137 °C | –
CCN(CCCc1c[nH]c2ccc(F)cc12)C1COc2c(F)ccc(C(=O)NC)c2C1 (stereo not drawn) (as salt: hydrochloride) [Compound 89, 3-{ethyl[3-(5-fluoro-1H-indol-3-yl)propyl]amino}-8-fluoro-N-methylchromane-5-carboxamide] | 118 °C (dec.) | –
CCCCCN(CCCc1c[nH]c2ccc(F)cc12)C1COc2c(F)ccc(C(N)=O)c2C1 (stereo not drawn) (as salt: hydrochloride) [Compound 71, 8-fluoro-3-[[3-(5-fluoro-1H-indol-3-yl)propyl](pentyl)amino]chromane-5-carboxamide] | 128 °C (dec.) | –
COc1cccc2c(CCCNC3COc4c(F)ccc(C(N)=O)c4C3)c[nH]c12 (stereo not drawn) (as salt: hydrochloride) [Compound 99, 8-fluoro-3-{[3-(7-methoxy-1H-indol-3-yl)propyl]amino}chromane-5-carboxamide] | 196 to 198 °C | –
CCCN(C(C)CCCc1c[nH]c2ccc(F)cc12)C1COc2c(F)ccc(C(N)=O)c2C1 (single isomer, unassigned; (+)) (as salt: hydrochloride) [Compound 14a, (+)-8-fluoro-3-[[4-(5-fluoro-1H-indol-3-yl)-1-methylbutyl](propyl)amino]chromane-5-carboxamide] | 148 to 150 °C | –

— US20050032873A1, “3-Amino chroman and 2-amino tetralin derivatives” (Wyeth, priority 2003, published 2005)
